{"source": "patent US20120178771A1", "about": "“Oral Pharmaceutical Compositions of Buprenorphine and Method of Use” (priority 2008, published 2012)", "origin": "cited, not measured here", "key": {"[1]": {"conditions": "orally administered, versus placebo; pain assessed 0.5 to 6 hours"}, "[2]": {"conditions": "human, in vivo"}}}
{"compound": "CC(=O)Nc1ccc(O)cc1", "note": "[acetaminophen (paracetamol), acetaminophen]", "values": [{"measurement": "analgesia over the 6 hours, differences between the groups", "setting": "[1]", "value": "no significant differences between the groups in analgesia"}]}
{"compound": "CN1CC[C@]23c4c5ccc(O)c4O[C@H]2[C@@H](O)C=C[C@H]3[C@H]1C5", "note": "[morphine]", "values": [{"measurement": "dose range required to control pain in about 90% of subjects", "setting": "[2]", "value": 8, "unit": "fold"}]}
{"compound": "COc1ccc2c3c1O[C@H]1C(=O)CC[C@@]4(O)[C@@H](C2)N(C)CC[C@]314", "note": "[oxycodone]", "values": [{"measurement": "dose range required to control pain in about 90% of subjects", "setting": "[2]", "value": 4, "unit": "fold"}]}
